The source made the active and inactive calls. The calls are words filed in the database; no cut-off is given here.

The subject of one test is Bemisia argentifolii. As to the kind of experiment: Insecticidal activity against Bemisia argentifolii assessed as mortality at 500 ppm. The test is classed as functional, organism-based.
Another test has as its system Spodoptera litura. Description: Insecticidal activity against Spodoptera litura assessed as mortality at 500 ppm. The test is classed as functional, organism-based.
Test [1] has as its system Frankliniella occidentalis. As to the kind of experiment: Insecticidal activity against Frankliniella occidentalis (western flower thrips) assessed as mortality at 500 ppm. The test is classed as functional, organism-based.
The subject of another test is Tetranychus urticae. As to the kind of experiment: Insecticidal activity against Tetranychus urticae (two-spotted spider mite) in primary leaf stage of bean plant assessed as mortality at 500 ppm after 2 days. The test is classed as functional. To be noted: 48 h.
Another test has as its system Plutella xylostella. As to the kind of experiment: Insecticidal activity against third-instar larvae of Plutella xylostella (diamondback moth) in six-leaf stage of cabbage plant assessed as mortality at 500 ppm sprayed over two excised leaf squares after 2 days. The test is classed as functional. Conditions: 48 h.

As a reminder, the mortality is the share of the test organisms that died. As to `O=C1c2c([nH]c3ccccc3c2=O)-c2cccn21` [QUINOLACTACIDE], the mortality result (with Bemisia argentifolii; in the test with Spodoptera litura; in test [1]) was “inactive” in each case. Further, the mortality at 500 ppm in the test on Tetranychus urticae turned out to be 42%; in the test with Plutella xylostella, 100%.

The record behind these values is ChEMBL document CHEMBL3045662, “Synthesis of quinolactacide via an acyl migration reaction and dehydrogenation with manganese dioxide, and its insecticidal activities” (2006).
